What all share (type): biochemical
One test deals with Human KLK1 (Homo sapiens (Human), UniProt P06870). The experiment in a line: Determination of the IC50 for KLK1 (fluorogenic substrate H-DVal-Leu-Arg-AFC). Particulars: 37° C. How it is done:
Determination of the IC50 for KLK1
Human KLK1 (Callbiochem) was incubated at 37° C. with the fluorogenic substrate H-DVal-Leu-Arg-AFC and various concentrations of the test compound. Residual enzyme activity (initial rate of reaction) was determined by measuring the change in […] at 410 nm and the IC50 value for the test compound was determined.

For the next test, the target named is Human plasma kallikrein (Homo sapiens (Human), UniProt P03952). As to the kind of experiment: Determination of the IC50 for plasma kallikrein (fluorogenic substrate H-DPro-Phe-Arg-AFC). The conditions noted are these: 37° C., read-out: IC50 (human PKaI). The method, then: Determination of the IC50 for Plasma Kallikrein
Human plasma kallikrein (Protogen) was incubated at 37° C. with the fluorogenic substrate H-DPro-Phe-Arg-AFC and various concentrations of the test compound. Residual enzyme activity (initial rate of reaction) was determined by measuring the change in […] at 410 nm and the IC50 value for the test compound was determined.

A further test addresses Factor XIIa (Homo sapiens (Human), UniProt P00748). The experiment in a line: Determination of enzyme selectivity, Factor XIIa. The conditions noted are these: substrate at Km concentration. How it is done:
Determination of Enzyme Selectivity
Human serine protease enzymes plasmin, thrombin, trypsin, Factor Xa and Factor XIIa were assayed for enzymatic activity using an appropriate fluorogenic substrate. Protease activity was measured by monitoring the accumulation of liberated fluorescence from the substrate over 5 minutes. The linear rate of fluorescence increase per minute was expressed as percentage (%) activity. The Km for the cleavage of each substrate was determined by standard transformation of the Michaelis-Menten equation.

pIC50: −log10 of the molar value.

This passage reports IC50 results from patent US9533987B2, “Heterocyclic derivates” (KALVISTA PHARMACEUTICALS LIMITED, priority 2013, dated 2017).

What is called pIC50 is the negative decadic logarithm of the IC50, by convention in mol/L. The IC50 is the point on the concentration scale where inhibition reaches its midpoint. Read a low IC50 as higher potency.

Sequence of Human KLK1 (P06870 25-262): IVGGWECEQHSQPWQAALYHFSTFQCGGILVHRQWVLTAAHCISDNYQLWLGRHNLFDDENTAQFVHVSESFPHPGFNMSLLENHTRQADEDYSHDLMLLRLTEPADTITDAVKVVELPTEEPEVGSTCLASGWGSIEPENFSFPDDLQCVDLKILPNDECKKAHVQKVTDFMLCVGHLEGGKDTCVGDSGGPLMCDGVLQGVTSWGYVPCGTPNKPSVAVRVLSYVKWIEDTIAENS
Sequence of Human plasma kallikrein (P03952 391-638): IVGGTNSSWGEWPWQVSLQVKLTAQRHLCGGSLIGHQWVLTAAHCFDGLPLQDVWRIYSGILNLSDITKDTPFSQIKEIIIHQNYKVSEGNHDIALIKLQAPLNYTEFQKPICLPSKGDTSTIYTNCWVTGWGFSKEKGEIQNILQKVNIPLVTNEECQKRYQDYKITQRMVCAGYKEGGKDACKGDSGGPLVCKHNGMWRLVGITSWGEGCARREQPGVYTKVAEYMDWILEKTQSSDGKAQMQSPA
Sequence of Human plasma kallikrein (P03952 20-390 partner): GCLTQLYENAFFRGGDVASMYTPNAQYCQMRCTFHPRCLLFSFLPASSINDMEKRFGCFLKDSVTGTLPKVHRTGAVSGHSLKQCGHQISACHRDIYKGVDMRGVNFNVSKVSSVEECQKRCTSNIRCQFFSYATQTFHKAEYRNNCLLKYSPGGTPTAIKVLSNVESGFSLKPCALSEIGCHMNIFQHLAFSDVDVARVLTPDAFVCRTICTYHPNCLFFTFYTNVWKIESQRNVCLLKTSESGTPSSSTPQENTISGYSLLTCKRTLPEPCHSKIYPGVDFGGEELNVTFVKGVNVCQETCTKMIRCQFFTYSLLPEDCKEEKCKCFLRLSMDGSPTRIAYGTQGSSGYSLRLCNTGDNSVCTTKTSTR
Sequence of Factor XIIa (P00748 373-615): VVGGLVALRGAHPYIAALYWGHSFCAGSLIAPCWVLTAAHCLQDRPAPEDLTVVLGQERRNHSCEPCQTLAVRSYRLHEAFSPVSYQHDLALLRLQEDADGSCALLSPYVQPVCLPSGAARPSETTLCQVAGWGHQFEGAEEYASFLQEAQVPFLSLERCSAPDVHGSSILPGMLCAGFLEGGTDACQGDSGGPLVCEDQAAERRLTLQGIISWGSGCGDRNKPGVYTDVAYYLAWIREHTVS

Turning to `C[C@@H]1CCN(c2cc(Cn3cc(C(=O)NCc4ccc5c(N)nccc5c4)c(C(F)(F)F)n3)ccn2)C1` [Example 67, 1-[2-((R)-3-Methyl-pyrrolidin-1-yl)-pyridin-4-ylmethyl]-3-trifluoromethyl-1H-pyrazole-4-carboxylic acid (1-amino-isoquinolin-6-ylmethyl)-amide], the values for the pIC50 at Human KLK1 and on Human plasma kallikrein were 5.05 and 6.97, respectively. At Factor XIIa, this molecule registered an IC50 above 10000 nM.
As for `C[C@H]1CCN(c2cc(Cn3cc(C(=O)NCc4ccc5c(N)nccc5c4)c(C(F)(F)F)n3)ccn2)C1` [Example 68, 1-[2-((S)-3-Methyl-pyrrolidin-1-yl)-pyridin-4-ylmethyl]-3-trifluoromethyl-1H-pyrazole-4-carboxylic acid (1-amino-isoquinolin-6-ylmethyl)-amide], the values for the pIC50 against Human KLK1 and at Human plasma kallikrein were 5.01 and 7.23, respectively. The same molecule came in with an IC50 on Factor XIIa above 10000 nM.
In the case of `Cc1nc(C)c(N(C)Cc2ccc(Cn3cc(C(=O)NCc4cnc5[nH]ccc5c4)cn3)cc2)s1` [Example 105, 1-(4-{[(2,4-Dimethyl-thiazol-5-yl)-methyl-amino]-methyl}-benzyl)-1H-pyrazole-4-carboxylic acid (1H-pyrrolo[2,3-b]pyridin-5-ylmethyl)-amide], the pIC50 against Human KLK1 was below 4.40; on Human plasma kallikrein, 4.77. Further, the IC50 at Factor XIIa was above 40000 nM.
On to `O=C(NCc1cnc2[nH]ccc2c1)c1cnn(Cc2cccc(Oc3ncccc3F)c2)c1` [Example 106, 1-[3-(3-Fluoro-pyridin-2-yloxy)-benzyl]-1H-pyrazole-4-carboxylic acid (1H-pyrrolo[2,3-b]pyridin-5-ylmethyl)-amide], for which the results for the pIC50 on Human KLK1 and at Human plasma kallikrein were below 4.40 and 4.92, respectively. In addition, the half-inhibitory concentration (IC50) on Factor XIIa was above 40000 nM.
On to `O=C(NCc1cnc2[nH]ccc2c1)c1cnn(Cc2ccc(Oc3ccccn3)cc2)c1` [Example 107, 1-[4-(Pyridin-2-yloxy)-benzyl]-1H-pyrazole-4-carboxylic acid (1H-pyrrolo[2,3-b]pyridin-5-ylmethyl)-amide], for which the results for the pIC50 against Human KLK1 and at Human plasma kallikrein were 4.42 and 5.64, respectively. This molecule showed an IC50 against Factor XIIa above 40000 nM.
For the molecule `O=C(NCc1cnc2[nH]ccc2c1)c1cnn(Cc2cccc(Oc3ccccc3)c2)c1` [Example 108, 1-(3-Phenoxy-benzyl)-1H-pyrazole-4-carboxylic acid (1H-pyrrolo[2,3-b]pyridin-5-ylmethyl)-amide], the pIC50 on Human KLK1 is 4.69; at Human plasma kallikrein, 4.66. The molecule further came in with an IC50 at Factor XIIa above 40000 nM.
For `O=C(NCc1cnc2[nH]ccc2c1)c1cnn(Cc2ccc(COc3cccc(F)n3)cc2)c1` [Example 109, 1-[4-(6-Fluoro-pyridin-2-yloxymethyl)-benzyl]-1H-pyrazole-4-carboxylic acid (1H-pyrrolo[2,3-b]pyridin-5-ylmethyl)-amide], the pIC50 against Human KLK1 was below 4.40; on Human plasma kallikrein it was 5.38. The same molecule registered an IC50 against Factor XIIa above 40000 nM.
For the molecule `Cc1cnn(Cc2ccc(Cn3cc(C(=O)NCc4ccc5[nH]c(C)cc5c4)c(C(F)(F)F)n3)cc2)c1` [Example 110, 1-[4-(4-Methyl-pyrazol-1-ylmethyl)-benzyl]-3-trifluoromethyl-1H-pyrazole-4-carboxylic acid (2-methyl-1H-indol-5-ylmethyl)-amide], the pIC50 was below 5.00 against Human KLK1 and 6.25 on Human plasma kallikrein. On Factor XIIa, this molecule registered an IC50 above 10000 nM.
As to `Cc1cnn(Cc2ccc(Cn3cc(C(=O)NCc4ccc5[nH]ncc5c4)c(C(F)(F)F)n3)cc2)c1` [Example 111, 1-[4-(4-Methyl-pyrazol-1-ylmethyl)-benzyl]-3-trifluoromethyl-1H-pyrazole-4-carboxylic acid (1H-indazol-5-ylmethyl)-amide], the pIC50 at Human KLK1 was 5.14; at Human plasma kallikrein, 6.66. The 50% inhibitory concentration (IC50) against Factor XIIa is above 10000 nM.
Turning to `Cc1cnn(Cc2ccc(Cn3cc(C(=O)NCc4ccc5[nH]ccc5c4)c(C(F)(F)F)n3)cc2)c1` [Example 112, 1-[4-(4-Methyl-pyrazol-1-ylmethyl)-benzyl]-3-trifluoromethyl-1H-pyrazole-4-carboxylic acid (1H-indol-5-ylmethyl)-amide], the pIC50 is below 5.00 on Human KLK1 and 7.22 at Human plasma kallikrein. The same molecule yielded an IC50 at Factor XIIa above 10000 nM.
